# Reference: US20090297566A1, “Oxygen-impervious packaging with optional oxygen scavenger, stabilized thyroid hormone compositions and methods for storing thyroid hormone pharmaceutical compositions” (priority 2004, published 2009)
# What was measured:
# [1] = Effects of desiccation and oxygen on levothyroxine sodium raw material, forced degradation at 60°C, potency; format: physicochemical; conditions: for % Potency: raw material
# Procedure: (§1) This study investigated the effects of humidity and oxygen on the storage of levothyroxine sodium raw material under forced degradation conditions (60° C.).
# (§2) High temperature and humidity was known to contribute to potency loss of levothyroxine sodium. Thus, a desiccant was added to the packaging create a low moisture environment to test the effect of reduced humidity upon the shelf life of the product. This study also used a FreshPax Pharma O2 Absorbing Packet as an oxygen scavenger. This oxygen scavenger reduced the level of oxygen in the package to less than 1%. All samples were packaged in 40 cc HDPE bottles.
# (§3) • 1. 60 g of levothyroxine sodium raw material was selected. • 2. The levothyroxine was assayed in duplicate to establish the initial potency under laboratory conditions. • 4. The samples were preparation under laboratory conditions. • 5. 3 g was distributed to each of eighteen 40 cc bottles. • 6. 1 g desiccant was added to each of six bottles. • 7. A single FreshPax Pharma O2 Absorbing Packet was added to each of six bottles. • 8. The remaining six bottles were packaged without desiccant or a packet of FreshPax Pharma O2. • 9. The bottles were capped and sealed using a Compak Jr Sealer and appropriate CRC caps. • 10. All bottles were placed in a 60° C. oven. • 11. The samples were tested for potency, as described in Example 2 and water content at 1-week intervals for three weeks, with a previously unopened sample bottle being tested at each interval. Potency analysis was conducted in duplicate weighings from each bottle correcting for actual water content.
# [2] = Water content of levothyroxine sodium raw material during forced degradation at 60°C; format: physicochemical; conditions: for % H2O: raw material
# Procedure: as §1, §2, §3
# [3] = raw material with FreshPax Pharma O2 packet, 60°C, three weeks
# [4] = 3 g in 40 cc HDPE bottle, Initial
# [5] = B: FreshPax Pharma O2 packet, 60°C, 1 wk
# [6] = B: FreshPax Pharma O2 packet, 60°C, 2 wk
# [7] = B: FreshPax Pharma O2 packet, 60°C, 3 wk
smiles,measurement,setting,value
"N[C@@H](Cc1cc(I)c(Oc2cc(I)c(O)c(I)c2)c(I)c1)C(=O)[O-].[Na+] [Levothyroxine Sodium, 3,3′,5,5′-tetraiodo-L-thyronine sodium salt]",stability,"[1]; raw material packaged with FreshPax Pharma O2 packet, 60°C, three weeks",stable
same,potency loss,"[1]; raw material with 1 g silica gel desiccant, 60°C, three-week study",2.8%
same,potency loss,[1]; [3],0.4%
same,% Potency,[1]; [4],99.2%
same,% Potency,"[1]; A: 1 g silica gel, 60°C, 1 wk",97.6%
same,% Potency,"[1]; A: 1 g silica gel, 60°C, 2 wk",97.2%
same,% Potency,"[1]; A: 1 g silica gel, 60°C, 3 wk",96.4%
same,% Potency,[1]; [5],99.8%
same,% Potency,[1]; [6],99.5%
same,% Potency,[1]; [7],98.8%
same,% Potency,"[1]; C: API alone, 60°C, 1 wk",99.6%
same,% Potency,"[1]; C: API alone, 60°C, 2 wk",98%
same,% Potency,"[1]; C: API alone, 60°C, 3 wk",97.3%
same,loss of water content,"[2]; raw material with 1 g silica gel desiccant, 60°C, within the first week",over 1%
same,water content deviation from original water content,[2]; [3],≤ 1%
same,% H2O,[2]; [4],9.9%
same,% H2O,"[2]; A: 1 g silica gel, 60°C, 1 wk",8.5%
same,% H2O,"[2]; A: 1 g silica gel, 60°C, 2 wk",8.7%
same,% H2O,"[2]; A: 1 g silica gel, 60°C, 3 wk",8.8%
same,% H2O,[2]; [5],9.1%
same,% H2O,[2]; [6],9.6%
same,% H2O,[2]; [7],9.6%
same,% H2O,"[2]; C: API alone, 60°C, 1 wk",9.4%
same,% H2O,"[2]; C: API alone, 60°C, 2 wk",8.9%
same,% H2O,"[2]; C: API alone, 60°C, 3 wk",8.8%
